Like-named read-outs stand apart in the source and are kept apart here.
Columns and labels:
[1] = target: T1, muscarinic M3 receptor (Homo sapiens, UniProt P20309); assay: R-SAT functional screen, M3; type: cell-based
T1 construct: expressed in transfected cells
From the text: The term “modulate” refers to the ability of a compound disclosed herein to alter the function of a muscarinic receptor. A modulator may activate the activity of a muscarinic receptor, may activate or inhibit the activity of a muscarinic receptor depending on the concentration of the compound exposed to the muscarinic receptor, or may inhibit the activity of a muscarinic receptor. The term “modulate” also refers to altering the function of a muscarinic receptor by increasing or decreasing the probability that a complex forms between a muscarinic receptor and a natural binding partner. A modulator may increase the probability that such a complex forms between the muscarinic receptor and the natural binding partner, may increase or decrease the probability that a complex forms between the muscarinic receptor and the natural binding partner depending on the concentration of the compound exposed to the muscarinic receptor, and or may decrease the probability that a complex forms between the muscarinic receptor and the natural binding partner. In some embodiments, modulation of the muscarinic receptor may be assessed using Receptor Selection and Amplification Technology (R-SAT) as described in U.S. Pat. No. 5,707,798, the disclosure of which is incorporated herein by reference in its entirety.
(§1) Several compounds disclosed herein were evaluated for activity at muscarinic receptors using Receptor Selection and Amplification Technology (R-SAT) as described in U.S. Pat. No. 5,707,798, the disclosure of which is incorporated herein by reference in its entirety. The efficacy (eff) and potency (expressed as pEC50) of these compounds are presented in Table 1 at M1, M2, and M3 receptors.

[2] = target: T2, muscarinic M2 receptor (Homo sapiens, UniProt P08172); assay: R-SAT functional screen, M2; type: cell-based; settings: for Emax: read-out: M2 eff (efficacy); for EC50: read-out: M2 pEC50 (converted)
T2 construct: expressed in transfected cells
T2 sequence (P08172 1-466): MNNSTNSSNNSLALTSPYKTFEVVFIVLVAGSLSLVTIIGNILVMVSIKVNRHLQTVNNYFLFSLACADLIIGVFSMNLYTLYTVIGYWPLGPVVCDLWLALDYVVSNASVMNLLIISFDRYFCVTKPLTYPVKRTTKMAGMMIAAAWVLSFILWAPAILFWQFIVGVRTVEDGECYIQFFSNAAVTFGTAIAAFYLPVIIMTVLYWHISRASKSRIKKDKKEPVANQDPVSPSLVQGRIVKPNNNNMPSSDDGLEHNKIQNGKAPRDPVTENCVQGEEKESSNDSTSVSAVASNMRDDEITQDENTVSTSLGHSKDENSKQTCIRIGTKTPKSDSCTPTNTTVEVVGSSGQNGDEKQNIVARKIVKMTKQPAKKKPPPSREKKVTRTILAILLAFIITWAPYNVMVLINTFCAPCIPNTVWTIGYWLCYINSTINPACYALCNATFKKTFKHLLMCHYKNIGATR
In short: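 Receptor Selection and Amplification Technology (R-SAT) functional cell assay at M1, M2, M3 receptors. Values reported as efficacy (eff) and potency as pEC50.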

[3] = target: T3, muscarinic M1 receptor (Homo sapiens, UniProt P11229); assay: R-SAT functional screen, M1; type: cell-based; settings: for Emax: read-out: M1 eff (efficacy); for EC50: read-out: M1 pEC50 (converted)
T3 construct: expressed in transfected cells
T3 sequence (P11229 1-460): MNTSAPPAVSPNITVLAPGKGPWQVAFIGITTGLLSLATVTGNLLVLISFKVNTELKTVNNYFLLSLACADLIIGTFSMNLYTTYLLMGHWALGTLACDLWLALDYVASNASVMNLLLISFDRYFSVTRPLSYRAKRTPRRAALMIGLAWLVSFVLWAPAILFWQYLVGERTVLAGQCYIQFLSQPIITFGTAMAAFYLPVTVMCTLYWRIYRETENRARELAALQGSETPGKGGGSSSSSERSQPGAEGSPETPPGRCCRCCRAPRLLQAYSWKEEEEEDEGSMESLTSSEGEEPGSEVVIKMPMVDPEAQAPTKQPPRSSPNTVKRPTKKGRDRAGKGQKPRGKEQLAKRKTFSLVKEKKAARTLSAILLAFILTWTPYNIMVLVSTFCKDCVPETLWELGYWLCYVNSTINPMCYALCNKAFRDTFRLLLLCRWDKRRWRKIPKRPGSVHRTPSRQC
Experimental: as §1

[4] = target: D2 receptor (Homo sapiens, UniProt P14416); assay: Receptor profile, D2 agonist activity; settings: for Emax: read-out: D2 intrinsic activity %
Sequence of D2 receptor (P14416 whole entry): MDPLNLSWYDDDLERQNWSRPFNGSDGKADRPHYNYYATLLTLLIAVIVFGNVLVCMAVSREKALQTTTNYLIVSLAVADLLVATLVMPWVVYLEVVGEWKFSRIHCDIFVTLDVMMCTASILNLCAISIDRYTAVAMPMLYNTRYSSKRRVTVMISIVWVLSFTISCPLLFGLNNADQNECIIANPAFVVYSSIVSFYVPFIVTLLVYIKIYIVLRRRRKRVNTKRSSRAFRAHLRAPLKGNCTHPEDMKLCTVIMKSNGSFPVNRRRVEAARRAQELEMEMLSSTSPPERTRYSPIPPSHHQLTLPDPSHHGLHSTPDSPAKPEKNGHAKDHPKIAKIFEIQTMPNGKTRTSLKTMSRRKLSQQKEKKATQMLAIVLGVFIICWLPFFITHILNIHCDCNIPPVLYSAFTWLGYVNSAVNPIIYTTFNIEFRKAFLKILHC

[5] = tested on: hyperactivity induced by MK-801; assay: MK-801 induced hyperactivity mouse model; type: in vivo; settings: mice, salts of the compounds
Experimental: (§2) Five of the compounds listed in Table 2 were tested in an in vivo assay predictive of antipsychotic activity. Salts of these compounds where administered to mice having hyperactivity induced by amphetamine or MK-801 administration. The compounds were administered both subcutaneously (sc) and orally (po).

[6] = target: T4, M1 receptor (Homo sapiens, UniProt P11229); assay: Receptor profile, M1 agonist activity; settings: for Emax: read-out: M1 intrinsic activity %
T4 sequence (P11229 1-460): T3 sequence (P11229 1-460)

[7] = target: 5-HT2A receptor (Homo sapiens, UniProt P28223); assay: Receptor profile, 5-HT2A inverse agonism; type: cell-based; settings: negative log of the inhibitory IC50 (inverse agonism); read-out: 5-HT2A pIEC50 (converted)
Sequence of 5-HT2A receptor (P28223 whole entry): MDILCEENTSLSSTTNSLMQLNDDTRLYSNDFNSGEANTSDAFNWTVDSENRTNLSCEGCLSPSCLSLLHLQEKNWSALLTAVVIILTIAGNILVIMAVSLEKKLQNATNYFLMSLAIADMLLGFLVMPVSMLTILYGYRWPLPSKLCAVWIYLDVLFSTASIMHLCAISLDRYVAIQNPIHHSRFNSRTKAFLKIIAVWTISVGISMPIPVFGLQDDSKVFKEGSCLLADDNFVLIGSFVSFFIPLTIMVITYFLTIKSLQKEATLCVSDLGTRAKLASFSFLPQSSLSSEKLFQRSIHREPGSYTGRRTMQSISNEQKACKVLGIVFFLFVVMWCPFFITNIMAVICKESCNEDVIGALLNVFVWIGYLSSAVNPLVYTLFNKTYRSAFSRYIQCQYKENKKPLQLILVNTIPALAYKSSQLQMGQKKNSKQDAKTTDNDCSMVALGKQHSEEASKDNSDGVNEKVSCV

[8] = tested on: novel object recognition; assay: Novel object recognition (NOR) assay; type: in vivo; settings: mice; for NOR - 60 minutes post training / NOR - 120 minutes post training: dose approx. ID75 in MK-801 hyperactivity assay
Experimental: Salts of the compounds were administered to mice at one hour post-training (a time-point at which animals normally behaviorally discriminate between novel and familiar objects) and two hours post-training (a time-point at which these animals normally no longer discriminate between objects). Doses were selected to correspond to the approximate ID75 value in the MK-801 hyperactivity assay.

[9] = Ames mutagenesis assay; type: cell-based
[10] = tested on: hyperactivity induced by amphetamine; assay: Amphetamine induced hyperactivity mouse model; type: in vivo; settings: mice, salts of the compounds
Experimental: as §2

T1 sequence (P20309 whole entry): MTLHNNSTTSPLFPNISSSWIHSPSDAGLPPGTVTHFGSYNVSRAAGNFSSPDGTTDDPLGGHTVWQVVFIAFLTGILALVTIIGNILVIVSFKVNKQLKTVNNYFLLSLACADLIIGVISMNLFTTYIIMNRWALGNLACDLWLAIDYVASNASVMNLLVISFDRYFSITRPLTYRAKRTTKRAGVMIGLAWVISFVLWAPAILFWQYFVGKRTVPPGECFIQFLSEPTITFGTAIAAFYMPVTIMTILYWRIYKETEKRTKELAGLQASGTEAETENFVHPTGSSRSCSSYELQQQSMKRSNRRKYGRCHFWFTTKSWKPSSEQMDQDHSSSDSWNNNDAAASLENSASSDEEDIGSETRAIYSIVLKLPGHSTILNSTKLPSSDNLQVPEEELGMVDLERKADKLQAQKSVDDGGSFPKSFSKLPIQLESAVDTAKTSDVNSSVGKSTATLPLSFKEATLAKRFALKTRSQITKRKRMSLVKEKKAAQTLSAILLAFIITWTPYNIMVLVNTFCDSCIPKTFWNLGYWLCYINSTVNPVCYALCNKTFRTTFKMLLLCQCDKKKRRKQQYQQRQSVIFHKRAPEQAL

Emax ([2]; R-SAT)	EC50 ([2]; R-SAT)	Emax ([3]; R-SAT)	EC50 ([3]; R-SAT)	SMILES	also measured
105%	2510 nM	66%	126 nM	Clc1cccc2c1C(N1CCNCC1)=Nc1cc(Br)ccc1N2 [8-Bromo-1-chloro-11-(piperazin-1-yl)-5H-dibenzo[b,e][1,4]diazepine]	M3 eff (efficacy) [1]: 4
162%	1000 nM	92%	63.1 nM	Cc1cccc2c1Nc1ccc(Cl)cc1N=C2N1CCNCC1 [8-Chloro-4-methyl-11-(piperazin-1-yl)-5H-dibenzo[b,e][1,4]diazepine]	M3 eff (efficacy) [1]: 16
121%	501 nM	63%	63.1 nM	Brc1ccc2c(c1)N=C(N1CCNCC1)c1ccccc1N2 [8-Bromo-11-(piperazin-1-yl)-5H-dibenzo[b,e][1,4]diazepine]	M3 eff (efficacy) [1]: 13
118%	1000 nM	78%	63.1 nM	Clc1ccc2c(c1)N=C(N1CCNCC1)c1cccc(Cl)c1N2 [4,8-Dichloro-11-(piperazin-1-yl)-5H-dibenzo[b,e][1,4]diazepine]	M3 eff (efficacy) [1]: 44; EC50 ([1]; read-out: M3 pEC50 (converted)): 158 nM
				Clc1ccc2c(c1)N=C(N1CCNCC1)c1ccccc1N2 [N-desmethylclozapine, reference compound]	MK-801 model (ID50 mg/kg po) [5]: 1.5 mg/kg; MK-801 model (ID50 mg/kg sc) [5]: 3.5 mg/kg; NOR Interpretation [8]: no effect; NOR - 60 minutes post training [8]: retained; NOR - 120 minutes post training [8]: not retained; Ames [9]: Neg.; Amphetamine model (ID50 mg/kg po) [10]: >10 mg/kg; Amphetamine model (ID50 mg/kg sc) [10]: 5.2 mg/kg
159%	1580 nM	28%	100 nM	CC1CN(C2=Nc3cc(Cl)ccc3Nc3ccccc32)CCN1 (stereo not drawn) [8-Chloro-11-(3-methyl-piperazin-1-yl)-5H-dibenzo[b,e][1,4]diazepine]	M3 eff (efficacy) [1]: 19
				CN1CCN(C2=Nc3cc(Cl)ccc3Nc3ccccc32)CC1 [Clozapine, clozapine, reference compound]	MK-801 model (ID50 mg/kg po) [5]: 0.6 mg/kg; MK-801 model (ID50 mg/kg sc) [5]: 0.5 mg/kg; NOR - 60 minutes post training [8]: not retained; NOR - 120 minutes post training [8]: not retained; NOR - 60 minutes post training ([8]; listed as clozapine): abolished novel object recognition; NOR - 120 minutes post training ([8]; listed as clozapine): cognitive impairing effects; Amphetamine model (ID50 mg/kg po) [10]: 10 mg/kg; Amphetamine model (ID50 mg/kg sc) [10]: 1.4 mg/kg
41%	316 nM	4%		c1ccc2c(c1)N=C(N1CCNCC1)c1ccccc1S2 [11-(piperazin-1-yl)-dibenzo[b,f][1,4]thiazepin]	
70%	1260 nM			Brc1ccc2c(c1)N=C(N1CCNCC1)c1ccccc1O2 [8-Bromo-11-(piperazin-1-yl)-dibenzo[b,f][1,4]oxazepine]	EC50 [4]: 50.1 nM; Emax [4]: 34%; EC50 [6]: 398 nM; Emax [6]: 36%; IC50 [7]: 25.1 nM
55%	794 nM	23%		Fc1ccc2c(c1)N=C(N1CCNCC1)c1ccccc1C2 [3-Fluoro-6-piperazin-1-yl-11H-dibenzo[b,e]azepine]	
62%	2510 nM	19%		O=S(=O)(Oc1ccc2c(c1)N=C(N1CCNCC1)c1ccccc1N2)C(F)(F)F [8-(Trifluoromethanesulfonyloxy)-11-(piperazin-1-yl)-5H-dibenzo[b,e][1,4]diazepine]	
12%		50%	1580 nM	Brc1ccc2c(c1)N=C(N1CCNCC1)C1CCCC1N2 (stereo not drawn) [7-Bromo-10-(piperazin-1-yl)-1,2,3,3a,4,10a-hexahydro-benzo[b]cyclopenta[e][1,4]diazepine]	
106%	1000 nM	49%	251 nM	N#Cc1ccc2c(c1)N=C(N1CCNCC1)c1ccccc1N2 [11-(piperazin-1-yl)-5H-dibenzo[b,e][1,4]diazepine-8-carbonitrile]	
3%		56%	2510 nM	Brc1ccc2c(c1)N=C(N1CCNCC1)CCN2 [7-Bromo-4-(piperazin-1-yl)-2,3-dihydro-1H-benzo[b][1,4]diazepine]	
8%		5%		CNCCNC1=Nc2cc(Cl)ccc2Nc2ccccc21 [N′-(8-Chloro-5H-dibenzo[b,e][1,4]diazepine-11-yl)-N-methyl-ethane-12-diamine]	
8%		32%	79.4 nM	Clc1cc2c(cc1Cl)Nc1ccccc1C(N1CCNCC1)=N2 [7,8-Dichloro-11-(piperazin-1-yl)-5H-dibenzo[b,e][1,4]diazepine]	

SMILES	Emax ([2]; R-SAT)	EC50 ([2]; R-SAT)	Emax ([3]; R-SAT)	EC50 ([3]; R-SAT)	also measured
Cc1cccc2c1Oc1ccc(C(F)(F)F)cc1N=C2N1CCNCC1 [4-Methyl-11-(piperazin-1-yl)-8-trifluoromethyl-dibenzo[b,f][1,4]oxazepine]	75%	794 nM			D2 intrinsic activity, in words ([4]; devoid of agonist activity): antagonist; MK-801 model (ID50 mg/kg sc) [5]: >10 mg/kg; EC50 [6]: 316 nM; Emax [6]: 52%; IC50 [7]: 2510 nM
Fc1ccc2c(c1)N=C(N1CCNCC1)c1ccccc1O2 [8-Fluoro-11-(piperazin-1-yl)-dibenzo[b,f][1,4]oxazepine]	48%	2510 nM			EC50 [4]: 15.8 nM; Emax [4]: 73%; EC50 [6]: 316 nM; Emax [6]: 39%; IC50 [7]: 501 nM
Clc1ccc2c(c1)N=C(N1CCNCC1)c1cccnc1N2 [8-Chloro-5-piperazin-1-yl-1H-benzo[b]pyrido[2,3-e][1,4]diazepine]				3160 nM	Emax [2]: 7%; Emax [3]: 51%
